Reference: US20220168307A1, “TREATMENT OF SMA” (Hoffmann-La Roche Inc., priority 2019, published 2022)
pIC50: −log10 of the molar value. Entries after “also recorded” stand apart in the source; their conditions may differ.

Assays:
CYP1A2 [1] = target: T1, CYP1A2 (Homo sapiens, UniProt P05177); assay: Time-dependent inhibition (IC50 shift) of CYP1A2 in human liver microsomes; format: in vitro ADME; details: risdiplam up to 12.5 μM
T1 sequence (P05177 1-516): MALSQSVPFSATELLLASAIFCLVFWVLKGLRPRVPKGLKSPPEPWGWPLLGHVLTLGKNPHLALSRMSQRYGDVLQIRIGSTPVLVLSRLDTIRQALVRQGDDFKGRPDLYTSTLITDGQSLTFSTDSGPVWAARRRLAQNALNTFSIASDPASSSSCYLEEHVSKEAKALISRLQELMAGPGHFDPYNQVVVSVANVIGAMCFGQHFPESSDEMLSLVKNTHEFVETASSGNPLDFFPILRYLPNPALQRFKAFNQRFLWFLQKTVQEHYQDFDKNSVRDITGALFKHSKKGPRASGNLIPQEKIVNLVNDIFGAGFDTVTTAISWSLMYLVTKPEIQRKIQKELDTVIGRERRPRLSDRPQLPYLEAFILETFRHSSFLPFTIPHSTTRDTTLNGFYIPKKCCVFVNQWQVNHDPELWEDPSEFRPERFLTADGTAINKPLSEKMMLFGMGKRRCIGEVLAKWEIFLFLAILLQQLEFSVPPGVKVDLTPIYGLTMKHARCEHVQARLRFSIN
Procedure: (§1) Donors CMV negative for serology are unm
(§2) All incubations were conducted in duplicate.
(§3) % remaining=(C+I/C^−I)*100

CYP2C9 [2] = target: T2, CYP2C9 (Homo sapiens, UniProt P11712); assay: Time-dependent inhibition (IC50 shift) of CYP2C9 in human liver microsomes; format: in vitro ADME; details: risdiplam up to 12.5 μM
T2 sequence (P11712 whole entry): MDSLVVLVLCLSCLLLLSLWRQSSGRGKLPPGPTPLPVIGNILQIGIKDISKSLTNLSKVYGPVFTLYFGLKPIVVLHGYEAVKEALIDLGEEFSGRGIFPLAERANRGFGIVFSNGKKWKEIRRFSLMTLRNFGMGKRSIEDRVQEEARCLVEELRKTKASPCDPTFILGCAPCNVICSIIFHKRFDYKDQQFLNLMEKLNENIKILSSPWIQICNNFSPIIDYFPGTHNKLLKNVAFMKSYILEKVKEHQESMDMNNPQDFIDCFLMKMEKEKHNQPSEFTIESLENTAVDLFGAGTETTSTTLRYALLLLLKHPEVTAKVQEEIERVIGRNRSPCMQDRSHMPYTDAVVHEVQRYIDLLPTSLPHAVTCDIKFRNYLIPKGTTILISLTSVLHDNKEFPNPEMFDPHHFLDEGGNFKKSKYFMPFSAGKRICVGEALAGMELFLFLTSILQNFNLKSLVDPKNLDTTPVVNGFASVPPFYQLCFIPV
Procedure: as §1, §2, §3

CYP2D6 = CYP2D6 (Homo sapiens, UniProt P10635)
Chain of CYP2D6 (P10635 whole entry): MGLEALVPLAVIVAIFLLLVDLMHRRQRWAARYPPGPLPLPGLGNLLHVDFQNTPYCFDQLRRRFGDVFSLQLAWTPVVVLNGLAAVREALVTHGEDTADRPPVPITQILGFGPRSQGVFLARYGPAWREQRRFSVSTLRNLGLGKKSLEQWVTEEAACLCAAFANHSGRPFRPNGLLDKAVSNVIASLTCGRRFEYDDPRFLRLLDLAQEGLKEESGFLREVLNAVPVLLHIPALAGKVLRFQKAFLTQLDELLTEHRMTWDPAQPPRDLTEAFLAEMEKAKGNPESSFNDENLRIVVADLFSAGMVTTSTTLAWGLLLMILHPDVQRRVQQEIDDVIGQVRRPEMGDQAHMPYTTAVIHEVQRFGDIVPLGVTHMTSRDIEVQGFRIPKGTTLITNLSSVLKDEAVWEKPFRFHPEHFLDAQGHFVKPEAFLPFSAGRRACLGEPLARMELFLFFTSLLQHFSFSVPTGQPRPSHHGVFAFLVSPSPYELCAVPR

CYP2B6 [3] = target: T3, CYP2B6 (Homo sapiens, UniProt P20813); details: risdiplam up to 12.5 μM
T3 sequence (P20813 1-491): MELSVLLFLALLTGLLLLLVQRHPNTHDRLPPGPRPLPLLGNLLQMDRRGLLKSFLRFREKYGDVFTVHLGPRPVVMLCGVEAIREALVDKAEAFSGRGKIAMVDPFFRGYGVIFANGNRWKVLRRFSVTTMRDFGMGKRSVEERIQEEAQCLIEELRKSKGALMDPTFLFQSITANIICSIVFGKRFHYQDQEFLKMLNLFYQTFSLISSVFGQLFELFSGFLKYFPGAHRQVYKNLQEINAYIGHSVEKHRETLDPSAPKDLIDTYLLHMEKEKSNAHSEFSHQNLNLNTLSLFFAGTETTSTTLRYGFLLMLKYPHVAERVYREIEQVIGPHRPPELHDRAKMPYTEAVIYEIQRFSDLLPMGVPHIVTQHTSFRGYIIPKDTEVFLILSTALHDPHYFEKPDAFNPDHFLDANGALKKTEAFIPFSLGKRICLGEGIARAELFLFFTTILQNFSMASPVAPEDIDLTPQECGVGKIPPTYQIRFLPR

CYP2C8 [4] = target: T4, CYP2C8 (Homo sapiens, UniProt P10632); assay: in vitro; details: pooled human liver microsomes, pH 7.4, probe amodiaquine
T4 sequence (P10632 1-490): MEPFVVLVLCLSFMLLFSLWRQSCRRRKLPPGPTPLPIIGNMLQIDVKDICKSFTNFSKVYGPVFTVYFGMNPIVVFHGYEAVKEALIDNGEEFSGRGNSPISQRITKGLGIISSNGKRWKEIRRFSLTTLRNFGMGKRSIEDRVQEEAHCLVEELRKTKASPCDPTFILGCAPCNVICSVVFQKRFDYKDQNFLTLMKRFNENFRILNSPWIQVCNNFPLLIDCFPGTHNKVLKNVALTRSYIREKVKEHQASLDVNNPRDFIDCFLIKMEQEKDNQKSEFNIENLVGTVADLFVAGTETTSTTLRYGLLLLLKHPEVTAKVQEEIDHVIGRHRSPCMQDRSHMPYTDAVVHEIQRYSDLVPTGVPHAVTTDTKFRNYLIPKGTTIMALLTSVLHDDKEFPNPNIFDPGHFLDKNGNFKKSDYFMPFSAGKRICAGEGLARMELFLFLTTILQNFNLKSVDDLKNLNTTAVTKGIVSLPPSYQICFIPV

CYP1A2 [5] = target: T1, CYP1A2; assay: biochemical
CYP2B6 [6] = target: T3, CYP2B6; assay: biochemical
CYP2C9 [7] = target: T2, CYP2C9; assay: biochemical
CYP2B6 [8] = target: T3, CYP2B6; assay: Direct inhibition of CYP2B6 (bupropion) in human liver microsomes
CYP2C9 [9] = target: T2, CYP2C9; assay: Direct inhibition of CYP2C9 (diclofenac) in human liver microsomes
CYP2C8 [10] = target: T4, CYP2C8; assay: Direct inhibition of CYP2C8 (amodiaquine) in human liver microsomes
CYP2C19 [11] = target: T5, CYP2C19 (Homo sapiens, UniProt P33261); assay: Direct inhibition of CYP2C19 ((S)-mephenytoin) in human liver microsomes
T5 sequence (P33261 whole entry): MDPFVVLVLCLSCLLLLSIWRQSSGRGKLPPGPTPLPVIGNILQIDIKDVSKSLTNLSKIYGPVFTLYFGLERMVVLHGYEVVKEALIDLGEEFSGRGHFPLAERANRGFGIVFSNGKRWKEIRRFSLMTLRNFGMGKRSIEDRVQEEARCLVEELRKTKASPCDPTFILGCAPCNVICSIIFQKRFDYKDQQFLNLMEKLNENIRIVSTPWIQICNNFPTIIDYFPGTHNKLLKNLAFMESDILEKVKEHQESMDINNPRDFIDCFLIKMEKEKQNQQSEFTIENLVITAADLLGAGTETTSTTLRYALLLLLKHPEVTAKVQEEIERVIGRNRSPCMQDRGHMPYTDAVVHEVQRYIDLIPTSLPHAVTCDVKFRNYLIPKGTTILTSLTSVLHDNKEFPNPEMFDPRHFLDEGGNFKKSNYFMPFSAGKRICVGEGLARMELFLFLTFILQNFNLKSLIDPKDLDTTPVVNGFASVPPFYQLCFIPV

CYP2C19 [12] = target: T5, CYP2C19; assay: Time-dependent inhibition (IC50 shift) of CYP2C19 in human liver microsomes; details: risdiplam up to 12.5 μM

Cc1cn2nc(-c3cc(=O)n4cc(N5CCNC6(CC6)C5)ccc4n3)cc(C)c2n1 [risdiplam, 7-(4,7-diazaspiro[2.5]octan-7-yl)-2-(2,8-dimethylimidazo[1,2-b]pyridazin-6-yl)pyrido[1,2-a]pyrimidin-4-one]
time-dependent inhibition (in words) (CYP1A2 [1]): did not show any significant reversible or time-dependent inhibition; also recorded: No significant reversible or time-dependent inhibition; also recorded: No significant time-dependent inhibition; also recorded: low potential to cause direct or time-dependent inhibition | time-dependent inhibition (in words) (CYP2C9 [2]): did not show any significant reversible or time-dependent inhibition; also recorded: No significant reversible or time-dependent inhibition; also recorded: No significant time-dependent inhibition; also recorded: low potential to cause direct or time-dependent inhibition | % Control activity at (CYP2D6; direct inhibition, substrate Dextromethorphan, concentration not given, duplicates): 95% | reversible (direct) inhibition (in words) (CYP2D6; risdiplam up to 12.5 μM): did not show any significant reversible or time-dependent inhibition; also recorded: No significant reversible or time-dependent inhibition; also recorded: No significant reversible inhibition; also recorded: low potential to cause direct or time-dependent inhibition | time-dependent inhibition (in words) (CYP2B6 [3]): did not show any significant reversible or time-dependent inhibition; also recorded: No significant reversible or time-dependent inhibition; also recorded: No significant time-dependent inhibition; also recorded: low potential to cause direct or time-dependent inhibition | activity (CYP2C8 [4]): 93% | pIC50 (CYP1A2 [5]): < 4.90 | pIC50 (CYP2B6 [6]): < 4.90 | pIC50 (CYP2C9 [7]): < 4.90 | % Control activity at (CYP2B6 [8]; direct inhibition, substrate Bupropion, concentration not given, duplicates): 94% | reversible (direct) inhibition (in words) (CYP2B6 [8]; risdiplam up to 12.5 μM): did not show any significant reversible or time-dependent inhibition; also recorded: No significant reversible or time-dependent inhibition; also recorded: No significant reversible inhibition; also recorded: low potential to cause direct or time-dependent inhibition | % Control activity at (CYP2C9 [9]; direct inhibition, substrate Diclofenac, concentration not given, duplicates): 82% | reversible (direct) inhibition (in words) (CYP2C9 [9]; risdiplam up to 12.5 μM): did not show any significant reversible or time-dependent inhibition; also recorded: No significant reversible or time-dependent inhibition; also recorded: No significant reversible inhibition; also recorded: low potential to cause direct or time-dependent inhibition | % Control activity at (CYP2C8 [10]; direct inhibition, substrate Amodiaquine, concentration not given, duplicates): 91% | reversible (direct) inhibition (in words) (CYP2C8 [10]; risdiplam up to 12.5 μM): did not show any significant reversible or time-dependent inhibition; also recorded: No significant reversible or time-dependent inhibition; also recorded: No significant reversible inhibition; also recorded: low potential to cause direct or time-dependent inhibition | % Control activity at (CYP2C19 [11]; direct inhibition, substrate (S)-Mephenytoin, concentration not given, duplicates): 97% | reversible (direct) inhibition (in words) (CYP2C19 [11]; risdiplam up to 12.5 μM): did not show any significant reversible or time-dependent inhibition; also recorded: No significant reversible or time-dependent inhibition; also recorded: No significant reversible inhibition; also recorded: low potential to cause direct or time-dependent inhibition | time-dependent inhibition (in words) (CYP2C19 [12]): did not show any significant reversible or time-dependent inhibition; also recorded: No significant reversible or time-dependent inhibition; also recorded: No significant time-dependent inhibition; also recorded: low potential to cause direct or time-dependent inhibition
